Results taken from ChEMBL document CHEMBL1201862, “PubChem BioAssay data set” (2004).
Active and inactive are the calls of the source.

Tests used:
[1] = target: Cytochrome P450 2C19 (Homo sapiens, UniProt P33261); test: Cytochrome panel assay with activity outcomes. Panel member name: p450-cyp2c19 Compounds with AC50 equal or less than 10 uM are considered active; assay type: functional
[2] = target: Cytochrome P450 2C9 (Homo sapiens, UniProt P11712)
[3] = viability of uninfected HEp-2 cells – cell-based, HTS, cytotoxicity control for RSV inhibitor project, dose response (AID 2410); assay type: functional; conditions: human respiratory syncytial virus
[4] = Trypanosoma cruzi growth suppression in host cells – NIH3T3 host cells, beta-gal luminescence, confirmation (AID 2044); assay type: functional, cell-based;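 also: intracellular parasites grown in NIH/3T3 mouse fibroblasts as host cells; luminescent beta-galactosidase reporter signal from transgenic T. cruzi replicating inside host cells; inhibitors lower the luminescence signal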
[5] = NIH3T3 cell viability loss – ATP luminescence, mouse fibroblasts, counter-screen, dose response (AID 2010); assay type: functional, cell-based;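 also: cells exposed to compound for about 90 hours before reading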
[6] = Luminescence Cell-Based Dose Retest to Confirm Inhibitors of Cancer Stem Cells. [Related pubchem assays (depositor defined):AID2717, AID2721]; assay type: functional; conditions: Homo sapiens
[7] = Luminescence Cell-Based Dose Confirmation HTS to Identify Activators of 5'UTR Stem-Loop Driven Alpha-Synuclein mRNA Translation in H4 Neuroglioblastoma Cells. [Related pubchem assays: 1829 (Project Summary), 1814 (Primary HTS)]; assay type: functional
[8] = Luminescence Cell-Based Dose Response HTS to Identify Activators of Luciferase Translation or Activity in H4 […] Cells. [Related pubchem assays: 1829 (Project Summary), 1814 (Primary HTS)]; assay type: functional
[9] = test system: H4; test: Luminescence Cell-Based Dose Response HTS to Identify Activators of 5'UTR Stem-Loop Driven Prion Protein mRNA Translation in H4 Neuroglioblastoma Cells. [Related pubchem assays: 1829 (Project Summary), 1814 (Primary HTS)]; assay type: functional; conditions: Homo sapiens
[10] = target: T1, Cytochrome P450 1A2 (Homo sapiens, UniProt P05177)
T1 sequence (P05177 whole entry): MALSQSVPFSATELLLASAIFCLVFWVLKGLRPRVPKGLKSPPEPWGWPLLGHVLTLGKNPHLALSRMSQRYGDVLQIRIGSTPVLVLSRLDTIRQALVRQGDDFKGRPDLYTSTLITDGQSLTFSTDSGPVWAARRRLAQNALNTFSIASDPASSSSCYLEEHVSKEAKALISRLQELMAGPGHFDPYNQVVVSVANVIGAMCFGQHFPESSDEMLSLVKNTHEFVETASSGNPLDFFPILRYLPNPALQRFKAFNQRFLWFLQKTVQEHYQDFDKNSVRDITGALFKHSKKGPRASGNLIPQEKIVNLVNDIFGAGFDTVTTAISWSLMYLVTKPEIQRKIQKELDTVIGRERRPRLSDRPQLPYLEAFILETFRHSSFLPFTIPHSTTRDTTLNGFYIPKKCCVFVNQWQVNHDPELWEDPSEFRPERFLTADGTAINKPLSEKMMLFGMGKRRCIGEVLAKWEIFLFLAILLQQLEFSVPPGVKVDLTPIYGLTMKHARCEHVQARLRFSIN

[11] = viability of PTEN-deleted HCT116 cells – cell-based, HCT116 PTEN knockout, dose response (AID 1047); assay type: functional;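 also: HCT116 colon tumor cells with PTEN knocked out; cells exposed to compound for 60 hours before readout; potency for loss of cell viability measured by luminescence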
[12] = viability of HCT116 lacking mutant beta-catenin – cell-based, human colon tumor, dose response (AID 1045); assay type: functional;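 also: HCT116 colon tumor cells with beta catenin knocked out; cells exposed to compound for 60 hours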
[13] = luciferase reporter signal suppression in cells – H4 neuroglioma cells, luminescence, dose response (AID 1990); assay type: functional, cell-based
[14] = Luminescence Cell-Based Dose Response HTS to Identify Inhibitors of 5'UTR Stem-Loop Driven Prion Protein mRNA Translation in H4 Neuroglioblastoma Cells. [Related pubchem assays: 1827 (Project Summary), 1813 (Primary HTS)]; assay type: functional
[15] = alpha-synuclein stem-loop luciferase translation blockers – H4 neuroglioma cells, luminescence, confirmation (AID 1988); assay type: functional, cell-based

Chain of Cytochrome P450 2C19 (P33261 whole entry): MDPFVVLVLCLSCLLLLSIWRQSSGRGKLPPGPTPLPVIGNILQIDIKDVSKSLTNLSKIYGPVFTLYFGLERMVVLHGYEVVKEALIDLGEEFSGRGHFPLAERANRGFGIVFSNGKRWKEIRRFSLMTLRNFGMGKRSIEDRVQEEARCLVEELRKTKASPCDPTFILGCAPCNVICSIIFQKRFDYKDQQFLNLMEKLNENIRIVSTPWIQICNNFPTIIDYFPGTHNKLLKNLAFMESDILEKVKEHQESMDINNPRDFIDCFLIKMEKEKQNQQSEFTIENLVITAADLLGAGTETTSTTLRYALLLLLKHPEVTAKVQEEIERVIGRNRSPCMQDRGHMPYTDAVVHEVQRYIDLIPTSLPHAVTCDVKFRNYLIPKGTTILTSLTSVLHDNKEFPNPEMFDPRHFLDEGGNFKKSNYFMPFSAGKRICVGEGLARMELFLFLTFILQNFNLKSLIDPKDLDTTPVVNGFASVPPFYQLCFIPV
Chain of Cytochrome P450 2C9 (P11712 whole entry): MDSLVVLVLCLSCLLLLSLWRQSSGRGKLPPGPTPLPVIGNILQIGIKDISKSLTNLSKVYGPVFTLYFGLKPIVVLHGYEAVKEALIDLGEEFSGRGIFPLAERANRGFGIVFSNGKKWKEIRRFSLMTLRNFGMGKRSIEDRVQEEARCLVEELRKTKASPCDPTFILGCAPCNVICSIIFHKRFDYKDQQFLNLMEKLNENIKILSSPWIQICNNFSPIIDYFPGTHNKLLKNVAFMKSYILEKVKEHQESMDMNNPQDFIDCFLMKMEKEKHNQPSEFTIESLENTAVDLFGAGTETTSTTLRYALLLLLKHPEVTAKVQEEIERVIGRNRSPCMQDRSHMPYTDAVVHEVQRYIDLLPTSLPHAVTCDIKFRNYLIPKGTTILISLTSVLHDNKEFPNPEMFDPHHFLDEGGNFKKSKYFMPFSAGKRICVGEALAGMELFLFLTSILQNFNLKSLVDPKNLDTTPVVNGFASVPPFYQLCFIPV

c1cncc(-c2nc(NCc3cccs3)c3ccccc3n2)c1
AC50 ([1]; read-out: AC50): 5.01 µM (inconclusive) | AC50 [2]: 1 µM (inconclusive)

Cc1ccccc1Nc1nc(N)nc(-c2oc3ccccc3c2C)n1
CC50 [3]: 35.4 µM (active) | EC50 [4]: 3.43 µM (active) | EC50 [5]: > 60 µM (not active)

Cc1ccc(-n2nnnc2SC(C(=O)c2c[nH]c3ccccc23)c2ccccc2)cc1 (centres undefined)
AC50 [6]: 2.14 µM (active)

O=C(Cc1ccc(F)cc1)Nc1nnc(SCC(=O)N2CCCCC2)s1
AC50 [6]: 24.3 µM (active)

O=C(CN1C(=O)S/C(=C\C=C\c2ccccc2)C1=O)N1CCOCC1
EC50 [7]: 12.2 µM (active) | EC50 [8]: 10.3 µM (active) | EC50 [9]: 17.8 µM (active)

COc1ccc(OC)c(C(=O)/C=C/c2ccccc2C(F)(F)F)c1
AC50 [6]: 5.2 µM (active)

Cc1cccc(C(=N)NOC(=O)CCCN2C(=O)c3ccccc3C2=O)c1
AC50 [1]: inconclusive | AC50 [2]: 3.98 µM (inconclusive)

CC(C)(C)NC(=O)C(c1c[nH]c2ccccc12)N(C(=O)Cn1nnc(-c2ccc(Cl)cc2)n1)c1ccccc1F (centres undefined)
CC50 [3]: 25.8 µM (active) | EC50 [4]: 1.79 µM (active) | EC50 [5]: > 60 µM (not active)

CC(=O)c1cc2c(s1)-c1cc(F)ccc1OC2
CC50 [3]: 33.3 µM (active)

Cc1nc2nc(-c3ccc(Cl)cc3)nn2c(C)c1Cl
EC50 [8]: 0.454 µM (active) | EC50 [9]: 5.95 µM (active) | AC50 ([1]; read-out: AC50): 39.8 µM (inconclusive) | AC50 [2]: 20 µM (inconclusive)

COCC(=O)Nc1ccc(-c2cn3cccnc3n2)cc1
AC50 ([1]; read-out: AC50): 3.98 µM (inconclusive) | AC50 [2]: 6.31 µM (inconclusive)

O=C(OC(C(=O)Nc1ccc(Cl)cc1C(F)(F)F)c1ccccc1)c1c(Cl)cccc1Cl (centres undefined)
CC50 [3]: 22.1 µM (active)

O=C(O)c1ccc(Cn2nnc3sc4c(c3c2=O)CCCC4)cc1
EC50 [7]: 13.2 µM (active) | EC50 [8]: 13.2 µM (active) | EC50 [9]: 53.1 µM (active)

CC(=O)OC[C@@H]1O[C@H](CCO/N=C(\C)CCC(=O)OC[C@@H]2O[C@H](C#Cc3ccccc3)C=C[C@@H]2Oc2ccc(C)cc2)C=C[C@@H]1OC(C)=O
AC50 [2]: 6.31 µM (inconclusive)

Cn1cccc1C(=O)N1CCC2(CC1)CCN(c1ccccn1)CC2
AC50 [10]: 15.8 µM (inconclusive) | AC50 [2]: 31.6 µM (inconclusive)

COc1ccc(-c2sc3ccc(N4CCOCC4)cc3c2C#CC(C)(C)O)cc1
AC50 [6]: 0.873 µM (active)

CCC(C)(C)n1nnnc1C(c1cc2cc(C)cc(C)c2nc1O)N1CCN(C(=O)c2ccco2)CC1 (centres undefined)
EC50 [11]: 28.4 µM (active) | EC50 [12]: 30.2 µM (active)

Cc1ccccc1S(=O)(=O)N1[C@@H](c2cccc(Cl)c2)C(C(=O)O)=CC[C@H]1c1ccc(Cl)cc1
CC50 [3]: 15.4 µM (active)

Cc1ccc(Nc2nc(N)nc(CN3CCN(Cc4ccc5c(c4)OCO5)CC3)n2)cc1Cl
EC50 [11]: 18 µM (active) | EC50 [12]: 15.9 µM (active)

COc1ccc(CCN2C(=S)N(C)C(=O)C2CC(=O)Nc2ccc(OC)cc2)cc1 (centres undefined)
AC50 [6]: 5.5 µM (active)

CCn1c2c(c3ccc(OC)cc31)CCCC2=O
CC50 [3]: > 50 µM (active)

CCOC(=O)c1[nH]c2c(c1-c1ccccc1)C(=O)CC(c1ccc(OC)c(OC)c1)C2 (centres undefined)
EC50 [11]: 54 µM (active) | EC50 [12]: 69.1 µM (active)

COc1ccc([N+](=O)[O-])cc1NC(=O)C(C)N(C)Cc1cccc(OC)c1OC (centres undefined)
CC50 [3]: > 50 µM (active)

O=C(OCCOc1ccccc1)c1[nH]nc2ccccc12
EC50 [7]: 3.16 µM (active) | EC50 [8]: 0.748 µM (active) | EC50 [9]: 98.3 µM (inconclusive)

O[C@@H]1[C@H](O)[C@H]2[C@@H](O)CCN2C[C@@H]1O
AC50 ([1]; read-out: AC50): 39.8 µM (inconclusive) | AC50 [10]: 31.6 µM (inconclusive) | AC50 [2]: 25.1 µM (inconclusive)

Cc1ccc(N2C(=O)C3C4C=CC(CC4)C3C2=O)cc1Br (centres undefined)
AC50 [6]: 0.678 µM (active)

COc1ccccc1C(=O)Nc1ccc2c(c1)nc(CCNC(=O)c1ccco1)n2C
EC50 [7]: 20.2 µM (active) | EC50 [8]: 81.6 µM (active) | EC50 [9]: > 120 µM (not active)

O=C(NC(=S)Nc1ccc(Oc2ccc(Cl)cc2)cc1)c1ccccc1
AC50 ([1]; read-out: AC50): 7.08 µM (inconclusive) | AC50 [2]: 2.82 µM (inconclusive)

COc1ccccc1-c1nnc(SCC(=O)Nc2ccccc2)o1
EC50 [7]: 0.382 µM (active) | EC50 [8]: 4.37 µM (inconclusive) | EC50 [9]: 66.2 µM (inconclusive)

O=C(c1cc(C2CC2)nc2ccc(Br)cc12)N1N=C(C(F)F)CC1(O)C(F)F (centres undefined)
EC50 [11]: 10.5 µM (active) | EC50 [12]: 13.9 µM (active)

COc1ccc(-c2cc(=O)oc3cc(OCC(=O)c4cccc([N+](=O)[O-])c4)ccc23)cc1
EC50 [11]: 24.9 µM (active) | EC50 [12]: 21.8 µM (active)

Cc1ccc(Nc2[nH]nc(C)c2[N+](=O)[O-])cc1
EC50 [7]: 44.9 µM (active) | EC50 [8]: 25.3 µM (active) | EC50 [9]: 0.172 µM (active)

Cc1nc2cncnc2n(C2CC2)c1=O
AC50 [2]: 7.94 µM (inconclusive)

Cc1cccc(CNc2ccc(C(CC(N)=O)NC(=O)Cc3cccc4ccccc34)cc2[N+](=O)[O-])c1 (centres undefined)
AC50 [6]: 5.85 µM (active)

CCOc1ccccc1NC(=O)c1nnn(-c2ccc3c(c2)OCCO3)c1N
CC50 [3]: 24.3 µM (active)

CC1(C)Cc2c(c(-c3ccco3)nc3sc4c(NCCN5CCOCC5)ncnc4c23)CO1
EC50 [11]: 8.46 µM (active) | EC50 [12]: 16.2 µM (active)

Cc1ccc(N=NC2=C(O)OC(C)(C)OC2=O)c(C)c1
EC50 [7]: 15 µM (active) | EC50 [8]: 14.7 µM (active) | EC50 [9]: 19.1 µM (active)

O=C(NC1CCCC1)c1ccc(CSCc2ccccc2F)o1
EC50 [7]: > 120 µM (not active) | EC50 [8]: 16.2 µM (active) | EC50 [9]: > 120 µM (not active)

OC(COCC1COc2ccccc2O1)CN1CCN(c2ccccc2F)CC1 (centres undefined)
AC50 [2]: 20 µM (inconclusive)

CCCCn1c(SCC(=O)Nc2cc(NC(=O)c3ccco3)ccc2C)nc2ccccc2c1=O
EC50 [11]: 14.4 µM (active) | EC50 [12]: 19.7 µM (active)

Cc1nc2c(sc3nc4c(cc32)COC(C)(C)C4)c(=O)n1Cc1ccccc1
EC50 [7]: 7.25 µM (active) | EC50 [8]: 7.48 µM (active) | EC50 [9]: 11.6 µM (active)

Cc1ncc([N+](=O)[O-])n1CCOC(=O)NC(NCc1ccccc1)C(Cl)(Cl)Cl (centres undefined)
AC50 ([1]; read-out: AC50): 14.1 µM (inconclusive) | AC50 [10]: 25.1 µM (inconclusive) | AC50 [2]: 12.6 µM (inconclusive)

O=[N+]([O-])c1nn(-c2ccc3c(c2)OCCO3)[n+]([O-])c1NCCC1=CCCCC1
EC50 [9]: 77.1 µM (active) | EC50 [4]: 0.574 µM (active) | EC50 [5]: > 60 µM (not active) | AC50 [6]: 52.2 µM (active)

O=C(NC(=S)N1CCCCC1)c1csc([N+](=O)[O-])c1
EC50 [7]: 14.9 µM (active) | EC50 [8]: > 120 µM (not active) | EC50 [9]: > 120 µM (not active)

C=CCc1c(C)nc2c(OC)cccc2c1Cl
CC50 [3]: 48.5 µM (active)

CSCC(=O)N1CCC(n2nccc2NC(=O)c2ccc3c(c2)OCO3)CC1
EC50 [7]: 13.6 µM (active) | EC50 [8]: 12.3 µM (active) | EC50 [9]: > 120 µM (not active)

Cc1cc(C)c(NC(=O)CSc2nc(COc3ccccc3)nc3ccccc23)c(C)c1
EC50 [13]: > 120 µM (not active) | EC50 [14]: 16.6 µM (active) | EC50 [15]: > 120 µM (not active)

COCCn1c(=O)c(-c2cn(C)c3ccccc23)nc2cncnc21
AC50 ([1]; read-out: AC50): 25.1 µM (inconclusive) | AC50 [2]: 10 µM (inconclusive)

CCN1C(=O)[C@H]2[C@@H](c3ccc(-c4ccc(F)cc4)c(OC)c3)N[C@@](CC(C)C)(C(=O)OC)[C@H]2C1=O
EC50 [13]: 17.2 µM (active) | EC50 [14]: 26.4 µM (active) | EC50 [15]: 13.9 µM (active)

Cc1ccc(C)c(OCCC(=O)N2CCN(S(=O)(=O)c3cc(C)ccc3C)CC2)c1
CC50 [3]: 22.3 µM (active) | EC50 [13]: > 120 µM (not active) | EC50 [14]: > 120 µM (not active) | EC50 [15]: 97 µM (active)

O=C(Nc1ccc(Cn2cccn2)cc1)c1ccc(COc2cccc(Br)c2)cc1
AC50 [6]: < 0.16 µM (active)

CN(CC(=O)Nc1ccc(Cl)c(C(F)(F)F)c1)C(=O)Cc1c[nH]c2ccccc12
CC50 [3]: 16.7 µM (active)

CC(/C=N/NC(=O)c1cc(-c2ccc(C)s2)[nH]n1)=C\c1ccccc1
AC50 [6]: 0.501 µM (active)
